Test results reported in patent US20060173069A1, “Therapeutic agent for hyperpotassemia and bone disease” (RIKEN, priority 2003, published 2006).
Positions of bridges follow the written chain, without caps; N, C: chain ends. No end group written: not given here.

How the values were obtained:
[1] = test system: undifferentiated RAW264 cells; experiment: Cell-death inducing activity on undifferentiated RAW264 cells, MTT method; type: cell-based, mouse; settings: Mus musculus, RAW264.7; 24 hours incubation, MTT; read-out: ED50 level of cell-death inducing activity to undifferentiated RAW264 cells, MTT
Method: The cell-death inducing activities to the undifferentiated RAW264 cells were investigated by the MTT method (J. Immunol. Methods, Vol. 65, pp 55-63 (1983). The RAW 264 cells were plated on a 96-well plate at a density of 40,000 cells/100 μl and then incubated for 24 hours. After the 24-hour incubation, 50 μl of a culture medium containing a three-fold concentration of the drug was added and then incubated for 24 hours to investigate the cell-death inducing activity. Two hours before the measurement of the cell-death inducing activity, 15 μl of 0.5% MTT-PBS (phosphate buffer saline) was added and incubated. After that, the residue from which the culture solution was removed was dissolved in 100 μl of DMSO (dimethyl sulfoxide) and the absorbance at 570 nm (a reference wave length of 630 nm) was measured, followed by calculating the ED50 level of the cell-death inducing activity.

mature osteoclasts = experiment: Cell-death (apoptosis) inducing activity on mature osteoclasts, number of TRAP-stained multinuclear cells; type: cell-based, mouse; settings: Mus musculus, Osteoclast; RAW264-derived mature osteoclasts, 24 hours incubation, TRAP staining; read-out: ED50 level of cell-death inducing activity to mature osteoclasts, Number of cells
Method: Using 29 different reveromycin A derivatives synthesized as described above, the cell-death inducing activities on the mature osteoclasts and undifferentiated macrophage-like cells derived from a mouse (RAW264 cells) were examined, respectively. The RAW264 cells, a mouse-macrophage cell line, were suspended in a 10% FBS-αMEM (manufactured by Gibco BRL Co., Ltd.) and then 12,000 cells/100 μl were inoculated in a 96-well plate. After 1-hour incubation, 100 μl of a culture medium containing RANKL ([…]) and PD98059 (40 μM) were added (final concentration: RANKL […] and PD98059 20 μM) and then incubated for 4 days to allow the differentiation of the cells to mature osteoclasts (J. Biol. Chem. Vol. 277, pp. 47366-47372 (2002)). Furthermore, on the second day of the culture, the half of the culture medium was replaced with new one. From each well of the plate where the cells were differentiated to the mature osteoclasts, 100 μl/well of the culture medium was removed. […] The apoptosis inducing activity was confirmed by the observation of agglutination of nuclei stained with 10 μM Hoechst 33258 for 10-minututes.

[2] = test system: bone resorption due to parathyroid hormone (PTH); experiment: Serum calcium in TPTX rats with hypercalcemia by continuous PTH infusion; type: in vivo, SD rats; settings: comparison of calcitonin with reveromycin A derivatives
Method: The bone resorption inhibitory effects of the reveromycin A derivatives were examined by measuring the level of serum calcium released in the blood by the action of bone resorption. SD rats were subjected to an operation of extracting the thyroid glands and the parathyroid glands (TPTX). Next day, a decrease in serum calcium was confirmed and then the continuous infusion of the parathyroid hormone (PTH) was carried out, thereby creating rats each having hypercalcemia by accelerating the bone resorption.
At 12 hours from the initiation of PTH injection, the reveromycin A derivatives ([…]) or a sodium salt thereof ([…]) were administered and the level of serum calcium was then measured in time-course for 24 hours.

CCCC[C@@]1(O)CC[C@]2(CC[C@H](C)[C@@H](C/C=C(C)/C=C/[C@H](OC)[C@@H](C)/C=C/C(=O)OC)O2)O[C@H]1/C=C/C(C)=C/C(=O)OC (mixture of isomers) [Compound 7]
CC50 [1]: > 169 µM
EC50 (mature osteoclasts): > 51 µM

CCCC[C@@]1(O)CC[C@]2(CC[C@H](C)[C@@H](C/C=C(C)/C=C/[C@H](O)[C@@H](C)/C=C/C(=O)O)O2)O[C@H]1/C=C/C(C)=C/C(=O)O (mixture of isomers) [Compound 11]
CC50 [1]: > 178 µM
EC50 (mature osteoclasts): 41 µM

CCCC[C@]1(C(/C=C/C(C)=C/C(=O)O)OC(=O)CCC(=O)O)CC[C@]2(CC[C@H](C)[C@@H](C/C=C(C)/C=C/[C@H](O)[C@@H](C)/C=C/C(=O)O)O2)O1 (some centres unmarked) [Compound 1]
CC50 [1]: 132 µM
EC50 (mature osteoclasts): > 45 µM

CCCC[C@@]1(OC(=O)CCC(=O)O)CC[C@]2(CC[C@H](C)[C@@H](CCO)O2)O[C@H]1/C=C/C(C)=C/C(=O)O [Compound 3]
CC50 [1]: > 6 µM
EC50 (mature osteoclasts): > 6 µM

CCCC[C@@]1(OC(=O)CCC(=O)O)CC[C@]2(CC[C@H](C)[C@@H](C/C=C(\C)CO)O2)O[C@H]1/C=C/C(C)=C/C(=O)O [Compound 4]
CC50 [1]: > 5.6 µM
EC50 (mature osteoclasts): > 5.6 µM

CCCC[C@@]1(OC(=O)CCC(=O)O)CC[C@]2(CC[C@H](C)[C@@H](C/C=C(\C)COC(=O)CCC(=O)O)O2)O[C@H]1/C=C/C(C)=C/C(=O)O [Compound 5]
CC50 [1]: > 157 µM
EC50 (mature osteoclasts): > 47 µM

CCCC[C@]1([C@@H](O)/C=C/C(C)=C/C(=O)O)CC[C@]2(CC[C@H](C)[C@@H](C/C=C(C)/C=C/[C@H](O)[C@@H](C)/C=C/C(=O)O)O2)O1 [Compound 10]
CC50 [1]: > 178 µM
EC50 (mature osteoclasts): > 54 µM

CCCC[C@@]1(OC(=O)CCC(=O)OC)CC[C@]2(CC[C@H](C)[C@@H](C/C=C(C)/C=C/[C@H](O[Si](C)(C)C(C)(C)C)[C@@H](C)/C=C/C(=O)OC)O2)O[C@H]1/C=C/C(C)=C/C(=O)O [Compound 12]
CC50 [1]: 1 µM
EC50 (mature osteoclasts): 0.6 µM

CCCC[C@@]1(OC(=O)CCC(=O)O)CC[C@]2(CC[C@H](C)[C@@H](C/C=C(C)/C=C/[C@H](O)[C@@H](C)/C=C/C(=O)OC)O2)O[C@H]1/C=C/C(C)=C/C(=O)OC [Compound 13]
CC50 [1]: 7.6 µM
EC50 (mature osteoclasts): 2.5 µM

CCCC[C@@]1(OC(=O)CCC(=O)OC)CC[C@]2(CC[C@H](C)[C@@H](C/C=C(C)/C=C/[C@H](O)[C@@H](C)/C=C/C(=O)O)O2)O[C@H]1/C=C/C(C)=C/C(=O)OC [Compound 14]
CC50 [1]: 25 µM
EC50 (mature osteoclasts): 3.3 µM

CCCC[C@@]1(OC(=O)CCC(=O)O)CC[C@]2(CC[C@H](C)[C@@H](C/C=C(C)/C=C/[C@H](O)[C@@H](C)/C=C/C(=O)OC)O2)O[C@H]1/C=C/C(C)=C/C(=O)O [Compound 15]
CC50 [1]: 25 µM
EC50 (mature osteoclasts): 5.8 µM

CCCC[C@@]1(OC(=O)CCC(=O)OC)CC[C@]2(CC[C@H](C)[C@@H](C/C=C(C)/C=C/[C@H](O)[C@@H](C)/C=C/C(=O)OC)O2)O[C@H]1/C=C/C(C)=C/C(=O)OC [Compound 16]
CC50 [1]: > 142 µM
EC50 (mature osteoclasts): 26 µM

CCCC[C@@]1(OC)CC[C@]2(CC[C@H](C)[C@@H](C/C=C/C(C)=C/C(=O)O)O2)O[C@H]1/C=C/C(C)=C/C(=O)O [Compound 17]
EC50 (mature osteoclasts): > 61 µM

CCCC[C@@]1(OC(=O)CCC(=O)OC)CC[C@]2(CC[C@H](C)[C@@H](C/C=C(C)/C=C/C(C)O)O2)O[C@H]1/C=C/C(C)=C/C(=O)OC (some centres unmarked) [Compound 19]
CC50 [1]: > 50 µM
EC50 (mature osteoclasts): 36 µM

CCCC[C@@]1(OC(=O)CCC(=O)OC)CC[C@]2(CC[C@H](C)[C@@H](C/C=C(C)/C=C/C(O)c3ccccc3)O2)O[C@H]1/C=C/C(C)=C/C(=O)OC (some centres unmarked) [Compound 20]
CC50 [1]: > 150 µM
EC50 (mature osteoclasts): > 45 µM

CCCC[C@@]1(OC(=O)CCC(=O)OC)CC[C@]2(CC[C@H](C)[C@@H](C/C=C(C)/C=C/[C@H](O)[C@@H](C)/C=C/C(=O)O)O2)O[C@H]1/C=C/C(C)=C/C(=O)O [Compound 21]
CC50 [1]: 21 µM
EC50 (mature osteoclasts): 7.3 µM

CCCC[C@@]1(OC(=O)CCC(=O)O)CC[C@]2(CC[C@H](C)[C@@H](C/C=C(C)/C=C/[C@H](O)[C@@H](C)/C=C/C(=O)O)O2)O[C@H]1/C=C/C(C)=C/C(=O)OC [Compound 22]
CC50 [1]: 53 µM
EC50 (mature osteoclasts): 9.3 µM

CCCC[C@@]1(OC(=O)CCC(=O)O)CC[C@]2(CC[C@H](C)[C@@H](C/C=C(C)/C=C/C(C)O)O2)O[C@H]1/C=C/C(C)=C/C(=O)OC (some centres unmarked) [Compound 23]
CC50 [1]: > 17 µM
EC50 (mature osteoclasts): > 17 µM

CCCC[C@@]1(OC(=O)CCC(=O)O)CC[C@]2(CC[C@H](C)[C@@H](C/C=C(C)/C=C/C(O)c3ccccc3)O2)O[C@H]1/C=C/C(C)=C/C(=O)OC (some centres unmarked) [Compound 24]
CC50 [1]: > 15 µM
EC50 (mature osteoclasts): > 15 µM

CCCC[C@@]1(OC(=O)CCC(=O)O)CC[C@]2(CC[C@H](C)[C@@H](C/C=C(C)/C=C/[C@@H](C)O)O2)O[C@H]1/C=C/C(C)=C/C(=O)OC [Compound 25]
CC50 [1]: > 17 µM
EC50 (mature osteoclasts): > 17 µM

CCCC[C@@]1(OC(=O)CCC(=O)O)CC[C@]2(CC[C@H](C)[C@@H](C/C=C(C)/C=C/[C@H](OC)[C@@H](C)/C=C/C(=O)O)O2)O[C@H]1/C=C/C(C)=C/C(=O)O [Compound 26]
CC50 [1]: > 148 µM
EC50 (mature osteoclasts): > 44 µM

CCCC[C@@]1(OC)CC[C@]2(CC[C@H](C)[C@@H](C/C=C(C)/C=C/[C@H](O)[C@@H](C)/C=C/C(=O)O)O2)O[C@H]1/C=C/C(C)=C/C(=O)O [Compound 1390-II]
EC50 (mature osteoclasts): > 5.2 µM

CCCC[C@]1(C(/C=C/C(C)=C/C(=O)O)OC)CC[C@]2(CC[C@H](C)[C@@H](C/C=C(C)/C=C/[C@H](O)[C@@H](C)/C=C/C(=O)O)O2)O1 (some centres unmarked) [Compound 1392-II]
CC50 [1]: > 174 µM
EC50 (mature osteoclasts): > 52 µM

CCCC[C@@]1(OC(=O)CCC(=O)O)CC[C@]2(CC[C@H](C)[C@@H](C/C=C(C)/C=C/[C@H](O)[C@@H](C)/C=C/C(=O)O)O2)O[C@H]1/C=C/C(C)=C/C(=O)O [Reveromycin A, reveromycin A, reference compound]
CC50 [1]: 24 µM
EC50 (mature osteoclasts): 0.18 µM

calcitonin (CGNLSTCMLGTYTQDFNKFHTFPQTAIGVGAP-NH2; disulfide 1-7; ends not checked; UniProt P01258 85-116, looked up) [reference compound]
duration of inhibitory action on bone resorption [2]: shorter inhibitory action on bone resorption
